Data reported in PMC9969401, “Discovery of 2-(3-Benzamidopropanamido)thiazole-5-carboxylate Inhibitors of the Kinesin HSET (KIFC1) and the Development of Cellular Target Engagement Probes” (Journal of Medicinal Chemistry, 2023).

Biological target: T1, HSET in DLD1 4N cells (Homo sapiens, UniProt Q9BW19)
T1 construct: overlapped with the signal from the antibody-probed endogenous HSET protein; endogenous in cells; host or cells: DLD1 4N cells
T1 sequence (Q9BW19 1-673): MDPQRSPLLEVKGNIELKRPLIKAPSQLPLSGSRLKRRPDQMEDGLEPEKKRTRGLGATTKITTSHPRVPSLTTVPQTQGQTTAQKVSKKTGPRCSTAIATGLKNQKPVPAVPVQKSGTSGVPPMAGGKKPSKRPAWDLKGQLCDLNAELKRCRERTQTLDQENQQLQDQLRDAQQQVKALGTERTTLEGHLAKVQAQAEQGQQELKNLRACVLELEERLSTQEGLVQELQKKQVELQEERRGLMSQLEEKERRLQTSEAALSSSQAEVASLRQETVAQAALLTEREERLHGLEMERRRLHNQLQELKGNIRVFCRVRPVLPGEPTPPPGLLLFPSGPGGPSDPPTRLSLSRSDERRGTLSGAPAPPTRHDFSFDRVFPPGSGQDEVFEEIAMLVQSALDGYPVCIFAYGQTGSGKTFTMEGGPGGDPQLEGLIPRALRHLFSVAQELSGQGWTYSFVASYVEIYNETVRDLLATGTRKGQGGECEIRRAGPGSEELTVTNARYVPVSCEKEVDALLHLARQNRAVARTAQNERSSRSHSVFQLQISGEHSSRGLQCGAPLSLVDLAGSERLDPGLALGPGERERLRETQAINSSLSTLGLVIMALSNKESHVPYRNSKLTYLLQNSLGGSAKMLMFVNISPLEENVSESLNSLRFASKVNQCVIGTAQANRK
Assay: Click probe localization target engagement imaging in DLD1 4N cells
Assay type: cell-based
Conditions: for Average Pixel intensity: DLD1 4N, Tz-Cy5 800nM
Method: The Cy-5 tetrazine dye selected for this experiment is not cell-permeable, thus fixation and permeabilization of cells were necessary prior to its addition. Experiments were conducted in DLD1 4N cells and, as a negative control, isogenic 2N DLD1 HSET KO cells in which HSET expression was prevented by the disruption of the HSET gene using CRISPR. Cells were treated first with proTAME for 2 h to accumulate mitotic events, followed by treatment with the TCO probe 40 for 45 min. The live cells were then fixed and permeabilized before treatment with the tetrazine-Cy5 dye and incubation to allow the IEDDA reaction to occur. Additionally, the cells were stained for the endogenous HSET protein using indirect immunofluorescence and imaged to observe the fluorescence from both the TCO probe and antibody-labeled HSET. […] A 3 μM concentration of the probe 40 gave an acceptable signal-to-noise ratio of around 2:1. Even under these optimal conditions, some residual uniform cytoplasmic Cy5 signal was observed within the cells. However, a clear Cy5 decoration of the mitotic spindle was seen, which overlapped with the signal from the antibody-probed endogenous HSET protein (Figures 2A and S6). […] We observed a 14–17-fold increase in signal in DLD1 4N cells treated with 40 relative to tetrazine-Cy5 alone. […] Comparing the intensity of click probe labeling coincident with the mitotic spindle in DLD1 4N cells to that in DLD1 HSET KO cells after both were treated with 40, we observed a twofold higher signal in the former.
Direct target engagement of active inhibitor 36 was measured by calculating its capacity to displace the TCO-containing probe 40. 4N DLD1 cells and DLD1 HSET KO cells (negative control) were plated in 96-well ibidi μ-Clear plates (IB-89626, ibidi). Cells were first treated for 2 h with 8 μM pro-TAME (I-440–01M, R&D system) to accumulate mitotic cells and were then treated with 8 μM MG-132 (S2619, SelleckChem) and 3 μM 40, alone or together with active inhibitor 36 in DMEM media with 1% FBS for 45 min. Cells were then washed three times in DMEM, with the second wash being incubated for 10 min to ensure the optimal reduction of unspecific compound binding. After an additional PBS wash, cells were then fixed in 4% PFA/PBS (15670799, Thermo Scientific) prior to incubation with 400 nM tetraszine-Cy5 (CLK-015-05, Jena Biosciences) in 1.5% FBS/PBS for 10 min at room temperature. Cells were permeabilized by the addition of 0.5% TritonX-100/PBS for 5 min before being stained overnight for Pericentrin (1:1500 ab28144 mouse anti-PCNT, Abcam) and KIFC1 (1:1500 12313S rabbit anti-KIFC1, Cell Signaling Technologies). Secondary antibodies Alexa Fluor 488 donkey antirabbit and Alexa Fluor 555 donkey antimouse (1:1500, A21206 and A31570, respectively, Life Technologies) were added together with 1 μg/mL DAPI (D9542, Sigma) in 1.5% FBS in PBS.
Plates were imaged at 40× using a Zeiss LSM980 confocal microscope with Airyscan 2. The subsequent analysis and quantification were performed using 3D image segmentation with the Arivis4D software. Mitotic cells were segmented by selecting for the highest density (integrated DAPI intensity/total volume), and the mitotic pole areas were segmented using the Pericentrin signal. The signal of the click probe (Cy5) and total KIFC1 (FITC) was measured on the mitotic pole area, and both were normalized to the control condition containing 40 probe alone. The ratio of probe per target (click probe pole integrated intensity signal/KIFC1 pole integrated intensity signal) was used to calculate the occupancy of the probe in the target protein and normalized to the control condition containing 40 probe alone (n > 100 for each replicate, two replicates per concentration point).

Row | Structure (SMILES) | displacement of TCO probe 40 from HSET in cells (in words) (competition with 3 μM 40, up to 10 μM 36) | Average Pixel intensity (5μM, Panel A: 3 quick washes at room temperature) | Average Pixel intensity (5μM, Panel B: 2 quick washes then 1 at 37 °C for 5 minutes) | Average Pixel intensity (5μM, Panel C: 2 quick washes then 1 at 37 °C for 10 minutes) | Average Pixel intensity (10μM, Panel A: 3 quick washes at room temperature) | Average Pixel intensity (10μM, Panel B: 2 quick washes then 1 at 37 °C for 5 minutes) | Average Pixel intensity (10μM, Panel C: 2 quick washes then 1 at 37 °C for 10 minutes)
1 | CCCOC(=O)c1sc(NC(=O)C[C@H](CCCN(C)C)NC(=O)c2cccc(-c3noc(C)n3)c2)nc1C [Compound 36, Propyl (S)-2-(6-(Dimethylamino)-3-(3-(5-methyl-1,2,4-oxadiazol-3-yl)benzamido)hexanamido)-4-methylthiazole-5-carboxylate] | dose-dependent manner | – | – | – | – | – | –
2 | CCCOC(=O)c1sc(NC(=O)C[C@H](CCCN(C)C(=O)O[C@@H]2CC/C=C/CCC2)NC(=O)c2cccc(-c3noc(C)n3)c2)nc1C [Compound 38, Propyl 2-((S)-6-(((((S,E)-Cyclooct-4-en-1-yl)oxy)carbonyl)(methyl)amino)-3-(3-(5-methyl-1,2,4-oxadiazol-3-yl)benzamido)hexanamido)-4-methylthiazole-5-carboxylate] | – | 5372 | 6057 | 4723 | 7167 | 7628 | 6337
